± gives the standard deviation of the averaged measurements.
Key:
Assay in all cases: relative cell number vs DMSO control (72 h) (% of DMSO); higher = less growth inhibition (more cells)
Conditions in all cases: sgRNA knockout: sgNT
[1] = test system: ZR-75-1
Protocol: (§1)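 QMAP-Seq: a pool of 5 breast cancer cell lines (ZR-75-1, SKBR3, HCC-38, MDA-MB-231, BT-20), each carrying 12 doxycycline-inducible Cas9 sgRNA perturbations (11 knockouts plus non-targeting sgNT), was treated with compounds for 72 h at four 10-fold doses (10 nM-10 uM or 1 nM-1 uM range). Barcodes were amplified and sequenced, and cell number was interpolated from 293T spike-in standard curves. The result is expressed as % of the median of DMSO wells. Two biological replicates.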

[2] = test system: SKBR3
Protocol: as §1

[3] = test system: HCC-38
Protocol: as §1

[4] = test system: BT-20
Protocol: as §1

[5] = test system: MDA-MB-231
Protocol: as §1

Compound	relative cell number ([1]; 10 nM)	relative cell number ([1]; 100 nM)	relative cell number ([1]; 1000 nM)	relative cell number ([1]; 10000 nM)	relative cell number ([2]; 10 nM)	relative cell number ([2]; 100 nM)	relative cell number ([2]; 1000 nM)	relative cell number ([2]; 10000 nM)	relative cell number ([3]; 10 nM)	relative cell number ([3]; 100 nM)	relative cell number ([3]; 1000 nM)	relative cell number ([3]; 10000 nM)	relative cell number ([4]; 10 nM)	relative cell number ([4]; 100 nM)	relative cell number ([4]; 1000 nM)	relative cell number ([4]; 10000 nM)	relative cell number ([5]; 10 nM)	relative cell number ([5]; 100 nM)	relative cell number ([5]; 1000 nM)	relative cell number ([5]; 10000 nM)	relative cell number ([1]; 1 nM)	relative cell number ([2]; 1 nM)	relative cell number ([3]; 1 nM)	relative cell number ([4]; 1 nM)	relative cell number ([5]; 1 nM)
CCOC(=O)CCNc1cc(N2CCc3ccccc3CC2)nc(-c2ccccn2)n1 [GSKJ4]	125 ± 56	113 ± 3.1	110 ± 7.2	33.4 ± 1.8	94.1 ± 37	104 ± 3.1	101 ± 9.6	88.8 ± 34	103 ± 7.2	98.1 ± 1.7	96.1 ± 22	60.8 ± 9.7	86.2 ± 8	105 ± 1.5	122 ± 12	52.7 ± 5.3	98.3 ± 30	123 ± 22	96.8 ± 44	34 ± 7.1					
CC(C)c1cc(-c2n[nH]c(=O)n2-c2ccc3c(ccn3C)c2)c(O)cc1O [Ganetespib]	83.6 ± 40	18 ± 1.4	27.2 ± 3.3		75.4 ± 13	24.1 ± 5.2	30.5 ± 9.4		94.7 ± 2.2	26.6 ± 1.2	18.5 ± 2.5		89.9 ± 2.6	44.8 ± 0.61	48.5 ± 11		88.7 ± 21	13.7 ± 1.3	11.4 ± 7.9		96.883 ± 0.01	73.1 ± 28	91 ± 2.5	96.6 ± 15	88.2 ± 21
COc1cc2ncnc(Nc3ccc(F)c(Cl)c3)c2cc1OCCCN1CCOCC1 [Gefitinib]	101 ± 13	116 ± 49	51.61 ± 0.097	44.4 ± 13	78.7 ± 18	95.3 ± 31	48.5 ± 17	36.6 ± 7.8	84.4 ± 11	105.03 ± 0.0072	105 ± 18	92.41 ± 0.25	95.4 ± 5.2	80.8 ± 9.2	86.3 ± 16	62.8 ± 13	83.3 ± 31	76.2 ± 23	81.2 ± 19	108 ± 12					
Nc1ccn([C@@H]2O[C@H](CO)[C@@H](O)C2(F)F)c(=O)n1 [Gemcitabine]	36.6 ± 15	26.4 ± 0.51	33.9 ± 6	30.5 ± 2.7	26.2 ± 2.4	7.58 ± 1.7	11.1 ± 5.8	14.1 ± 6.9	20.2 ± 3.4	10.5 ± 0.58	12.9 ± 3.4	11.1 ± 3.8	68 ± 3.1	34 ± 5.5	28.3 ± 5	23.9 ± 15	18.5 ± 3.2	20.3 ± 7.1	15.6 ± 1.6	14 ± 3.5					
Cc1cc2c(C(C)C)c(O)c(O)c(C=O)c2c(O)c1-c1c(C)cc2c(C(C)C)c(O)c(O)c(C=O)c2c1O [Gossypol]	129 ± 19	96 ± 13	106 ± 54	26.9 ± 14	101.3 ± 0.15	94.3 ± 8.1	103 ± 7.4	24.6 ± 2.8	96.4 ± 16	91.6 ± 12	107.2 ± 0.47	27 ± 1.4	96.2 ± 1.7	80.1 ± 8.4	113 ± 39	44.9 ± 2	125 ± 38	87.2 ± 6.4	103 ± 33	22.7 ± 7.3					
COc1cc2c(cc1-c1c(C)noc1C)ncc1[nH]c(=O)n([C@H](C)c3ccccn3)c12 [IBET151]	65.6 ± 36	104 ± 28	49 ± 4.5	37.5 ± 0.4	64.9 ± 9	88.5 ± 6.6	47.8 ± 1.4	31.9 ± 9.4	85.1 ± 6.5	82.8 ± 13	60.2 ± 2.5	53.6 ± 3.3	82.5 ± 2.4	90.5 ± 39	72.5 ± 0.91	49.4 ± 3.8	88.1 ± 9	72.1 ± 3.6	42.4 ± 2	19 ± 15					
